{"source": "patent US4146719A", "about": "“Piperazinyl derivatives of quinoline carboxylic acids” (priority 1977, dated 1979)", "key": {"[1]": {"tested_on": "Bacillus subtilis PCI 219", "assay": "Antibacterial activity in vitro, M.I.C., agar dilution streak method", "assay_type": "cell-based", "settings": "Bacillus subtilis, PCI219"}, "[2]": {"tested_on": "Staphylococcus aureus 209P", "assay": "Antibacterial activity in vitro, M.I.C., agar dilution streak method", "assay_type": "cell-based", "settings": "Staphylococcus aureus, 209P"}, "Sta. aureus ATCC 14775": {"tested_on": "Sta. aureus ATCC 14775", "assay": "Antibacterial activity in vitro, M.I.C., agar dilution streak method", "assay_type": "cell-based, Staphylococcus aureus", "settings": "Staphylococcus aureus, ATCC14775"}, "[3]": {"tested_on": "Streptococcus pyogenes IID 692", "assay": "Antibacterial activity in vitro, M.I.C., agar dilution streak method", "assay_type": "cell-based", "settings": "Streptococcus pyogenes, IID692"}, "Str. pyogenes S-8": {"tested_on": "Str. pyogenes S-8", "assay": "Antibacterial activity in vitro, M.I.C., agar dilution streak method", "assay_type": "cell-based, Streptococcus pyogenes", "settings": "Streptococcus pyogenes, S8"}, "[4]": {"tested_on": "Diplococcus pneumoniae IID 552", "assay": "Antibacterial activity in vitro, M.I.C., agar dilution streak method", "assay_type": "cell-based", "settings": "Streptococcus pneumoniae, IID552"}, "[5]": {"tested_on": "Mycobacterium phlei IFO 3142", "assay": "Antibacterial activity in vitro, M.I.C., agar dilution streak method", "assay_type": "cell-based", "settings": "Mycolicibacterium phlei, IFO3142"}, "My. smegmatis IFO 3083": {"tested_on": "My. smegmatis IFO 3083", "assay": "Antibacterial activity in vitro, M.I.C., agar dilution streak method", "assay_type": "cell-based", "settings": "Mycolicibacterium smegmatis, IFO3083"}, "Escherichia coli NIHJ": {"tested_on": "Escherichia coli NIHJ", "assay": "Antibacterial activity in vitro, M.I.C., agar dilution streak method", "assay_type": "cell-based", "settings": "Escherichia coli"}, "E. coli ATCC 10536": {"tested_on": "E. coli ATCC 10536", "assay": "Antibacterial activity in vitro, M.I.C., agar dilution streak method", "assay_type": "cell-based, Escherichia coli", "settings": "Escherichia coli, ATCC10536"}, "[6]": {"tested_on": "Proteus vulgaris IFO 3167", "assay": "Antibacterial activity in vitro, M.I.C., agar dilution streak method", "assay_type": "cell-based", "settings": "Proteus vulgaris, IFO3167"}, "Pr. vulgaris XK Denken": {"tested_on": "Pr. vulgaris XK Denken", "assay": "Antibacterial activity in vitro, M.I.C., agar dilution streak method", "assay_type": "cell-based, Proteus vulgaris", "settings": "Proteus vulgaris"}, "[7]": {"tested_on": "Klebsiella pneumoniae IFO 3512", "assay": "Antibacterial activity in vitro, M.I.C., agar dilution streak method", "assay_type": "cell-based", "settings": "Klebsiella pneumoniae, IFO3512"}, "[8]": {"tested_on": "Salmonella enteritidis IID 604", "assay": "Antibacterial activity in vitro, M.I.C., agar dilution streak method", "assay_type": "cell-based", "settings": "Salmonella enterica"}, "Shigella sonnei IID 969": {"tested_on": "Shigella sonnei IID 969", "assay": "Antibacterial activity in vitro, M.I.C., agar dilution streak method", "assay_type": "cell-based", "settings": "Shigella sonnei, IID969; Gram -"}, "[9]": {"tested_on": "Haemophilus influenzae IID 986", "assay": "Antibacterial activity in vitro, M.I.C., agar dilution streak method", "assay_type": "cell-based", "settings": "Haemophilus influenzae, IID986"}, "[10]": {"tested_on": "Neisseria perflava IID 856", "assay": "Antibacterial activity in vitro, M.I.C., agar dilution streak method", "assay_type": "cell-based", "settings": "Neisseria perflava, IID856"}, "[11]": {"tested_on": "Pseudomonas aeruginosa V-1", "assay": "Antibacterial activity in vitro, M.I.C., agar dilution streak method", "assay_type": "cell-based", "settings": "Pseudomonas aeruginosa, V1"}, "Ps. aeruginosa IFO 12689": {"tested_on": "Ps. aeruginosa IFO 12689", "assay": "Antibacterial activity in vitro, M.I.C., agar dilution streak method", "assay_type": "cell-based, Pseudomonas aeruginosa", "settings": "Pseudomonas aeruginosa, IFO12689"}, "Ps. aeruginosa IID 1210": {"tested_on": "Ps. aeruginosa IID 1210", "assay": "Antibacterial activity in vitro, M.I.C., agar dilution streak method", "assay_type": "cell-based, Pseudomonas aeruginosa", "settings": "Pseudomonas aeruginosa, IID1210"}, "Ps. aeruginosa IID 1130": {"tested_on": "Ps. aeruginosa IID 1130", "assay": "Antibacterial activity in vitro, M.I.C., agar dilution streak method", "assay_type": "cell-based, Pseudomonas aeruginosa", "settings": "Pseudomonas aeruginosa, IID1130"}, "[12]": {"tested_on": "gram-positive and gram-negative bacteria including Pseudomonas aeruginosa", "assay": "Antibacterial spectrum in vitro (summary in words)", "assay_type": "cell-based"}, "[13]": {"assay": "Chelate formation with ferric ion", "assay_type": "physicochemical", "settings": "one third molar equivalent of ferric chloride hexahydrate, water", "source_text": "It is known that most of drugs such as Quinoform and Ethambutol which form chelates with metal ions in vivo produce undesirable side effects."}, "[14]": {"tested_on": "Escherichia coli NIHJ JC-2", "assay": "Preventive effect against ascending kidney infection in mice with Escherichia coli", "assay_type": "in vivo, Escherichia coli; mice (ddY, female)", "settings": "Escherichia coli", "experimental": "Ascending kidney infection was induced in female mice (strain: ddY, 6 weeks old, body weight: 22-26g), by instilling Escherlichia coli NIHJ JC-2 suspended in 0.04 ml of Tryptosoya broth (Nissan) into the urinary tract of mice anesthetized with sodium pentobarbital and by holding for 6 hours the mice in plastic tubes (diameter 25 mm) and clamping the outlet of urinary tract.\nEach of these test material was orally administered 3 hours after inoculation. Mice were sacrificed 48 hours after inoculation. Kidneys were removed aseptically and bisected, and the two halves were pressed and streaked on agar plate containing Desoxycholate medium (Nissan). The therapeutic effect of each compound was evaluated from the absence of growth on the agar surface after 20 hours of incubation at 37° C."}, "[15]": {"tested_on": "Escherichia coli NIHJ JC-2", "assay": "Influence of rat bile on antibacterial activity", "assay_type": "cell-based", "settings": "bile of rats", "experimental": "Nutrient agar was heated and melted. […] The diameter of the inhibition zone was measured."}, "Escherichia coli": {"tested_on": "Escherichia coli", "assay": "Concentration ratio in serum to M.I.C. after oral administration of 50 mg/kg in rats", "assay_type": "in vivo, Escherichia coli; rats", "settings": "rat, 50 mg/kg oral"}, "[16]": {"assay": "Biliary excretion in rats after a single oral administration of 50 mg/kg", "settings": "in vivo, rat, 50 mg/kg oral"}, "[17]": {"settings": "Chem. Abstr., 62, 15600h (1965); cited from earlier work"}}, "note": "Read-outs that look alike come from different tables or passages of the source.", "data": [{"molecule": "CCn1cc(C(=O)O)c(=O)c2ccc(C)nc21", "note": "[Nalidixic acid]", "values": [{"measurement": "MIC", "setting": "[1]", "result": 6.25, "unit": "µg/mL"}, {"measurement": "MIC", "setting": "[2]", "result": 100, "unit": "µg/mL"}, {"measurement": "MIC", "setting": "Sta. aureus ATCC 14775", "result": "> 100", "unit": "µg/mL"}, {"measurement": "MIC", "setting": "[3]", "result": "> 100", "unit": "µg/mL"}, {"measurement": "MIC", "setting": "Str. pyogenes S-8", "result": "> 100", "unit": "µg/mL"}, {"measurement": "MIC", "setting": "[4]", "result": "> 100", "unit": "µg/mL"}, {"measurement": "MIC", "setting": "[5]", "result": 100, "unit": "µg/mL"}, {"measurement": "MIC", "setting": "My. smegmatis IFO 3083", "result": "> 100", "unit": "µg/mL"}, {"measurement": "MIC", "setting": "Escherichia coli NIHJ", "result": 3.13, "unit": "µg/mL"}, {"measurement": "MIC", "setting": "E. coli ATCC 10536", "result": 3.13, "unit": "µg/mL"}, {"measurement": "MIC", "setting": "[6]", "result": 3.13, "unit": "µg/mL"}, {"measurement": "MIC", "setting": "Pr. vulgaris XK Denken", "result": 3.13, "unit": "µg/mL"}, {"measurement": "MIC", "setting": "[7]", "result": 1.56, "unit": "µg/mL"}, {"measurement": "MIC", "setting": "[8]", "result": 12.5, "unit": "µg/mL"}, {"measurement": "MIC", "setting": "Shigella sonnei IID 969", "result": 1.56, "unit": "µg/mL"}, {"measurement": "MIC", "setting": "[9]", "result": 1.56, "unit": "µg/mL"}, {"measurement": "MIC", "setting": "[10]", "result": 1.56, "unit": "µg/mL"}, {"measurement": "MIC", "setting": "[11]", "result": 100, "unit": "µg/mL"}, {"measurement": "MIC", "setting": "Ps. aeruginosa IFO 12689", "result": "> 200", "unit": "µg/mL"}, {"measurement": "MIC", "setting": "Ps. aeruginosa IID 1210", "result": "> 200", "unit": "µg/mL"}, {"measurement": "MIC", "setting": "Ps. aeruginosa IID 1130", "result": "> 200", "unit": "µg/mL"}, {"measurement": "antibacterial activity (in words)", "setting": "[12]", "result": "inactive on many strains of gram-positive bacteria and many Pseudomonas aeruginosa strains"}, {"measurement": "shift of absorption maxima on treatment with ferric ion", "setting": "[13]; from 256 and 326 nm, NaOH", "result": "shifted to shorter wave length at 248 and 311 nm"}, {"measurement": "chelate compound with ferric ion", "setting": "[13]; molar equivalent of sodium hydroxide", "result": "3:1 chelate compound of nalidixic acid and ferric ion was obtained"}, {"measurement": "ED90", "setting": "[14]; NIHJJC2, 48 h", "result": 345, "unit": "mg/kg"}, {"measurement": "ED50", "setting": "[14]; NIHJJC2, po, 48 h, read-out: ED50 (95% confidence limit)", "result": 86, "unit": "mg/kg"}, {"measurement": "antibacterial activity in presence of bile (in words)", "setting": "[15]", "result": "not influenced by bile of rats"}, {"measurement": "serum concentration / M.I.C. ratio (in words)", "setting": "Escherichia coli", "result": "smaller than that of the compound (II)"}, {"measurement": "dose excreted at 3 h", "setting": "[16]; 0-3 hours, mean ±S.E., read-out: Biliary excretion, cumulative recovery", "result": "0.29 ± 0.03", "unit": "%"}, {"measurement": "concentration at 3 h", "setting": "[16]; 0-3 hrs., mean±S.E., read-out: Biliary level", "result": "14700 ± 1500", "unit": "ng/mL"}, {"measurement": "dose excreted at 6 h", "setting": "[16]; 0-6 hours, mean ±S.E., read-out: Biliary excretion, cumulative recovery", "result": "0.56 ± 0.05", "unit": "%"}, {"measurement": "dose excreted at 24 h", "setting": "[16]; 0-24 hours, mean ±S.E., read-out: Biliary excretion, cumulative recovery", "result": "1.33 ± 0.1", "unit": "%"}, {"measurement": "dose excreted at 27 h", "setting": "[16]; 0-27 hours, mean ±S.E., read-out: Biliary excretion, cumulative recovery", "result": "1.33 ± 0.1", "unit": "%"}, {"measurement": "concentration at 6 h", "setting": "[16]; 3-6 hrs., mean±S.E., read-out: Biliary level", "result": "16600 ± 2400", "unit": "ng/mL"}, {"measurement": "concentration at 24 h", "setting": "[16]; 6-24 hrs., mean±S.E., read-out: Biliary level", "result": "9300 ± 1600", "unit": "ng/mL"}, {"measurement": "concentration at 27 h", "setting": "[16]; 24-27 hrs., read-out: Biliary level (not detected symbol)", "result": "< 2000", "unit": "ng/mL"}, {"measurement": "chelate compound with ferric ion", "setting": "[17]", "result": "afforded chelate compound when treated with ferric ion"}]}]}
